Data set [1] in a line: Test IV: spontaneous motor activity, activity cage mouse treated intraperitoneally (CNS depression). In kind it is in vivo. The settings on record: in vivo, ip.
Text: (§3) AED-0.3 (mg/kg. of body weight) activity cage,
(§4) Test IV involves measurement of spontaneous motor activity of mice as a reflection of the CNS depressant or sedative side effects of the test compound. […] The AED-0.3 reflects approximately 50% reduction in spontaneous motor activity.
For a further data set, the system named is fed rat. The data set is described as follows: Test II: conditioned avoidance response (CAR), fed rat treated intraperitoneally (psychotropic). In kind it is in vivo. As to conditions: for activity in the conditioned avoidance response test (Test II): in words; for ED50: ip, read-out: CAR-ED50. How it is done: Tests I and II refer to the conditioned avoidance response. Data with respect to Test II were obtained by the method described in the above Wu, et al. patents and publications in which trained rats were maintained on a standard laboratory diet and were treated intraperitoneally with the test drug. Test I is a modification of the same conditioned avoidance response test except that fasted rats were employed and the animals were treated orally.

The target in data set [2] is T1, alpha-adrenergic receptor (Rattus norvegicus, UniProt P43140).
T1 sequence (P43140 1-466): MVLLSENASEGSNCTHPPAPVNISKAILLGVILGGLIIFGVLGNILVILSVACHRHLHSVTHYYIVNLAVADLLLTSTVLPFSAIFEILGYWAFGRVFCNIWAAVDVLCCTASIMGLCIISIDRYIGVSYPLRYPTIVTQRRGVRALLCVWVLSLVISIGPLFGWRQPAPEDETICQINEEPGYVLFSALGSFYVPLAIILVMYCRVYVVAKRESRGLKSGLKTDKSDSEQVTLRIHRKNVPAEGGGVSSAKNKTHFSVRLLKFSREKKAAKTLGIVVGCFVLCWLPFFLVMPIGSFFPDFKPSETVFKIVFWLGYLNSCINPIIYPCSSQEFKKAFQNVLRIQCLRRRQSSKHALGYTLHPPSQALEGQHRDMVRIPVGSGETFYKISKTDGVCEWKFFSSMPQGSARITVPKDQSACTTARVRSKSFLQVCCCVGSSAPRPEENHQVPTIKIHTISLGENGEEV
The data set is described as follows: Test VII: alpha-adrenergic receptor blocking action in vitro, isolated rat seminal vesicle, 1-norepinephrine as spasmogen.
Text: (§5) IC50 (mcg/ml) alpha-adrenergic receptor blocking action
(§6) in vitro - rat seminal vesicle - 1-norepinephrine
(§7) Test VII is an in vitro measurement of alpha-adrenergic receptor blocking action employing the isolated seminal vesicle of the rat. […] A low value represents high activity.

Data set [3] has as its target T2, dopamine binding, corpus striatum (Rattus norvegicus, UniProt P61169).
T2 construct: The corpus striatum of male Sprague-Dawley rats (Charles River Laboratories) is employed as the test tissue; tissue Charles River Laboratories; host or cells: corpus striatum of male Sprague-Dawley rats
The data set is described as follows: Test V: receptor binding assay, tritiated spiperone as ligand, dopamine binding assay (psychotropic). As to conditions: tritiated siperone as ligand, Compound 7: average of two determinations. The source says: V. Receptor binding assay, IC50 in nM, tritiated siperone as
(§1) Tests V and VI are receptor binding assays which measure the ability of a compound to prevent the binding of a radiolabeled ligand to specific high affinity sites in brain tissue. According to the state of the art, various ligands have been identified with aspects of CNS function or potential for side effects. The ability of a compound to inhibit labeled ligand binding in vitro is considered to be a reflection of the compound's ability to effect the corresponding CNS function or side effect in vivo.
Test V is a dopamine binding assay which reflects neuroleptic activity (Burt, Creese, and Snyder, Molec. Pharmacol. 12:800 (1976); Burt, Creese, and Snyder, Science 196: 326 (1977); Creese, Burt, and Snyder, Science 192: 481 (1976)). The corpus striatum of male Sprague-Dawley rats (Charles River Laboratories) is employed as the test tissue. The radiolabeled ligand is tritiated spiperone. […] Thus, any value less than 1000 nM in Test V represents potential neuroleptic utility.

The next data set concerns fasted rat. The data set is described as follows: Test I: conditioned avoidance response (CAR), fasted rat treated orally (psychotropic). In kind it is in vivo. The settings on record: for ED50: read-out: CAR-ED50.
The next data set can be described thus: in vivo. The settings on record: mouse, po.
For a further data set, the system named is rat. The data set is described as follows: rat catalepsy test. The settings on record: for rat catalepsy test result: oral doses of 200 mg/kg. In kind it is in vivo. How it is done:
(§2) That dose of Compound No. 7, however, constituted the ALD50 dose for rats. In mice the ALD50 of Compound No. 7 was determined to be 500 mg/kg. of body weight.

The nature of a further data set: ALD50 for rats. As to conditions: rat, in vivo, oral dose of the catalepsy test. As for the experimental part:
as §2

The target in data set [4] is alpha-adrenergic receptors in the cerebral cortex. As to the kind of experiment: Test VI: receptor binding assay, tritiated WB-4101 as ligand (alpha-adrenergic blockade). On the set-up: species or system rat. The settings on record: for IC50: Test VI, tritiated WB-4101 as ligand, rat cerebral cortex, in excess of 100 nM is considered inactive.
Text: as §1

The nature of a further data set: ALD50 in mice. The settings on record: mouse, in vivo. How it is done:
as §2

For data set [5], the system named is mouse. As to the kind of experiment: Test IV: spontaneous motor activity, activity cage mouse treated intraperitoneally (CNS depression). In kind it is in vivo. As to conditions: in words; mouse.
Text: as §3, §4
In data set [6] the test system is mouse. As to the kind of experiment: Test III: spontaneous motor activity, activity cage mouse treated orally (CNS depression). As to conditions: in words; for sedative action (Tests III and IV): oral and intraperitoneal.
Text: (§8) AED-0.3 (mg/kg. of body weight) activity cage
as §4
Assay in data set [7]: as above
Text: as §8, §4
As to conditions: in vivo, po.

Data set [8] addresses T1, alpha-adrenergic receptor.
Text: as §5, §6, §7
Where [9] appears, read: Test IV, activity cage mouse, intraperitoneal, reflects approximately 50% reduction in spontaneous motor activity, read-out: AED-0.3.
The mark [10] stands for this setting: Test II, fed rat, intraperitoneal.

Like-named read-outs stand apart in the source and are kept apart here.

T2 sequence (P61169 whole entry): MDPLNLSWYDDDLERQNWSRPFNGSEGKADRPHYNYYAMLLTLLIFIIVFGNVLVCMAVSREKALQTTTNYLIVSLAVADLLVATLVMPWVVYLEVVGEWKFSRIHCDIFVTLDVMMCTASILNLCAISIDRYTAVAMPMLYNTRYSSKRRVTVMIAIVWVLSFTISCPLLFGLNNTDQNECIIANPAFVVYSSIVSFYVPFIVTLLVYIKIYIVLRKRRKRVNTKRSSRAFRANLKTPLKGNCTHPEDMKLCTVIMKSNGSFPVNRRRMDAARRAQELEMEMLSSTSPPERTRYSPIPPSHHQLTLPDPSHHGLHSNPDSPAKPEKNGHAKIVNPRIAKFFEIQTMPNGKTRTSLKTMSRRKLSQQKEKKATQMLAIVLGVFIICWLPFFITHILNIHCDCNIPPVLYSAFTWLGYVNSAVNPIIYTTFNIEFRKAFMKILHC
Description for fasted rat: I. CAR-ED50 (mg/kg. of body weight) fasted rat
Tests I and II refer to the conditioned avoidance response. […] Test I is a modification of the same conditioned avoidance response test except that fasted rats were employed and the animals were treated orally.
Text for in vivo: as §8, §4

Usually IC50 stands for the concentration at which inhibition is half-maximal. High values mean weaker potency in that assay, low ones greater potency in that assay. Take `O=C1CC2(CCCC2)CC(=O)N1CCN1CCN(c2ccccn2)CC1` [compound 1]: the figures for the ED50 (in [1] (setting [9]); in the data set on fed rat (setting [10])) were 41 mg/kg and 22.6 mg/kg, respectively. Moreover, the “activity in the conditioned avoidance response test (Test II)” value with fed rat (fed rat, intraperitoneal) is “very substantially less active”. This molecule also showed a 50% inhibitory concentration (IC50) in data set [2] of 5830 nM.

`CC1CN(c2ncccc2C#N)CCN1CCCCN1C(=O)CC2(CCCC2)CC1=O` (centres unmarked) [compound 5, 2-[4-[4-(7,9-Dioxo-8-azaspiro[4.5]decan-8-yl)butyl]-3-methyl-1-piperazinyl]pyridine-3-carbonitrile] came in with an IC50 in data set [3] of 400 nM. The ED50 with fasted rat (Test I, fasted rat, oral) was 85 mg/kg.

`O=C1CC2(CCCC2)CC(=O)N1CCCCN1CCN(c2ncccn2)CC1` [Compound No. 6, buspirone]: the ED50 with fasted rat (Test I, fasted rat, oral) came to 48 mg/kg; in data set [1] (mouse), 33 mg/kg; in the data set “in vivo” it was 92 mg/kg; in the data set on fed rat (setting [10]), 4.3 mg/kg. Also, the “rat catalepsy test result” value in the data set on rat is “inactive”.

One may read the LD50 as the dose expected to kill half of the subjects tested. Read a low LD50 as a more toxic substance. For `COc1cccnc1N1CCN(CCCCN2C(=O)CC3(CCCC3)CC2=O)CC1` [Compound No. 7], the IC50 was 100 nM in data set [3] and 65 nM in [4]. Besides, the ED50 in the data set on fasted rat (Test I, fasted rat, oral) was determined as 55 mg/kg. Also, the LD50 in “ALD50 for rats” amounted to 200 mg/kg; in the data set “ALD50 in mice”, 500 mg/kg. For the same molecule, in the data set with rat, the “rat catalepsy test result” value was “inactive”.

`CN(C)CCCN1c2ccccc2Sc2ccc(Cl)cc21` [Chlorpromazine, chlorpromazine]: the ED50 is 39 mg/kg in the data set on fasted rat (Rattus norvegicus, po); 3.6 mg/kg in data set [1] (setting [9]); 4.8 mg/kg in the data set on fed rat (Rattus norvegicus). For the same molecule, the IC50 in data set [4] was determined as 31 nM. In the data set on rat, the “ED5 in the rat catalepsy test” value came to 4.1 mg/kg. The alpha-adrenergic blocking activity entry in data set [2] (in words, rat seminal vesicle) is listed as “strong”.

As for `O=C1CC2(CCCC2)CC(=O)N1CCCCN1CCN(c2ccccn2)CC1` [Compound No. 3], the ED50 with fasted rat (Test I, fasted rat, oral) came to 34 mg/kg; in data set [1] (setting [9]) it was 2.6 mg/kg; in [7] it was 10 mg/kg; in the data set on fed rat (setting [10]), 2.8 mg/kg. For the same molecule, the “activity by intraperitoneal route (Test IV) relative to oral route (Test III)” value with mouse [5] is “several-fold stronger activity”. Besides, in the data set with mouse [6], the “sedative action (Tests III and IV)” value is “high”. Moreover, the IC50 is 280 nM in data set [4] and 871 nM in data set [2].

As for `COc1cccc(N2CCN(CCCN3C(=O)CC4(CCCC4)CC3=O)CC2)n1` [Compound No. 2], in data set [8], the “alpha-adrenergic blocking agent (Tests VI and VII)” value is recorded as “relatively strong”. In addition, the “activity by intraperitoneal route (Test IV) relative to oral route (Test III)” value in the data set with mouse [5] was “several-fold stronger activity”. The ED50 is 7.4 mg/kg in data set [1] (setting [9]), 82 mg/kg in [7] and more than 50 mg/kg with fed rat (setting [10]). Moreover, the figures for the IC50 in [4] and in data set [2] were 48 nM and 182 nM, respectively. Further, the “activity in the conditioned avoidance response test (Test II)” value in the data set on fed rat (fed rat, intraperitoneal) is listed as “very substantially less active”.

For `N#Cc1cccnc1N1CCN(CCCCN2C(=O)CC3(CCCC3)CC2=O)CC1` [Compound No. 4, 2-[4-[4-(7,9-Dioxo-8-azaspiro[4.5]decan-8-yl)butyl]-1-piperazinyl]pyridine-3-carbonitrile], the ED50 was determined as 24 mg/kg in the data set with fasted rat (Test I, fasted rat, oral) and 97 mg/kg in data set [7]. Moreover, the “potency in Test I (neuroleptic action)” value in the data set with fasted rat (in words, fasted rat, oral) was “good potency”. Besides, the “potency in Test III (sedative action)” value in the data set with mouse [6] (oral) was “low potency”. For the same molecule, the “sedative action (Tests III and IV)” value with mouse [6] was “lack of sedative action”. This molecule came in with an IC50 in data set [4] of 360 nM. Moreover, in [4] (in words), the “potency in Test VI (alpha-adrenergic blocking action)” value was “low potency”. Besides, in the data set on rat, the “rat catalepsy test result” value was “inactive”.

The values are drawn from US4305944A, “N-[(4-[3-cyano substituted pyridyl]piperazino)alkyl]-azaspirodecanediones” (priority 1980, dated 1981).
